Values quoted from earlier work as cited in patent US20210393559A1, “Compositions and Methods of Use of Beta-Hydroxy-Beta-methylbutyrate (HMB) for Improving Muscle Mass, Strength and Muscular Function Without Exercise” (Metabolic Technologies, LLC, priority 2020, published 2021).

Columns and labels:
[1] = biological target: T1, 1-alpha, 25-Vitamin D hydroxylase (Homo sapiens, UniProt O15528); conditions: human vascular smooth muscle
T1 sequence (O15528 1-508): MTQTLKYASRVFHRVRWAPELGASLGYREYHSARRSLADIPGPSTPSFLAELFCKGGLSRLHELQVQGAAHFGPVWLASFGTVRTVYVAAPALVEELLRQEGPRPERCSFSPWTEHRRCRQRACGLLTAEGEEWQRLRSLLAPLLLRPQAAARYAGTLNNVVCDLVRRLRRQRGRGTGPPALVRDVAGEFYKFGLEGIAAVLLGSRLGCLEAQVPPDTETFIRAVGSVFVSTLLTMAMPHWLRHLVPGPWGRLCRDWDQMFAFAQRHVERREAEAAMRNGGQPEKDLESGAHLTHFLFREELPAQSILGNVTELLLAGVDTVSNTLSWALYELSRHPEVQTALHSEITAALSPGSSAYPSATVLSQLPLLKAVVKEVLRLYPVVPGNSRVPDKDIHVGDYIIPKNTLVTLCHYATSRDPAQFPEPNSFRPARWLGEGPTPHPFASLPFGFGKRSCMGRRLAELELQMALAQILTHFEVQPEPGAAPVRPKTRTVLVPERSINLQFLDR

[2] = healthy young or old adults
[3] = after HMB is fed

Km [1] | Compound | side effects [2] | loss of HMB to urine [3]
25 ng/mL | C=C1CC[C@H](O)C/C1=C/C=C1\CCC[C@]2(C)[C@@H]([C@H](C)CCCC(C)(C)O)CC[C@@H]12 [25OH-VitD3] | – | –
– | β-hydroxy-β-methylbutyrate [HMB] | no side effects | 20-50%
